According to patent publication US4997817A, “Phyllanthostatin A” (Arizona Board of Reagents, priority 1990, dated 1991):
≈ marks a conversion by molar mass, not a printed value.

Experiments:
[1] = tested on: P388 murine lymphocytic leukemia; experiment: Cell growth inhibition against P388 murine lymphocytic leukemia (in vitro PS system), NCI standard protocol; type: cell-based; conditions: Mus musculus, read-out: ED50 (P388 murine lymphocytic leukemia, in vitro PS system)
Description: Hplc-uv/vis and cell growth inhibition against the P388 murine lymphocytic leukemia (in vitro PS system) were used to guide the isolation of the lignan.

[2] = Stability in solution at room temperature (nmr observation; MeOH solutions stored two days); type: physicochemical
[3] = Thermal stability in DMSO-d6 (variable temperature 1H nmr); type: physicochemical; conditions: DMSO-d6, higher temperatures (FIGS. 2d,e); signals attributable to justicidin B appeared
Method: Signals of the remaining carbons appeared as sharp single lines. These observations are explained by hindered rotation around the C-1/C-1' axis, resulting in conformational isomers. In order to provide evidence for or disprove this hypotheses, the ^1 H nmr spectra of the glycoside (shown above) were recorded in DMSO-d6 at different temperatures. Table 1 summarizes the chemical shifts observed at 25, 65, 105, 135, and 145° C. […] Room temperature (FIG. 2a) led to a complex coupling pattern that became more easily interpretable when the spectrum was recorded at 65° C. (FIG. 2b). Signals due to H-2', H-5' and H-6' broadened and disappeared when the temperature was raised (FIG. 2c). […] Other protons (not shown in FIG. 2) also appeared as single resonances at higher temperatures.

COc1cc2cc(COC(C)=O)c(C(=O)O[C@@H]3O[C@H](CO)[C@@H](O)[C@H](O)[C@H]3O)c(-c3ccc4c(c3)OCO4)c2cc1OC [Phyllanthostatin A]
IC50 [1]: 4 µg/mL (≈ 6.82 µM) | justicidin B detected in stored solution ([2]; MeOH solutions, room temperature, two days): Justicidin B was also detected in MeOH solutions of glycoside stored at room temperature for two days | stability in solution ([2]; in solution): unstable in solution | decomposition at higher temperatures [3]: gradually decomposed
